Results taken from patent US9708306B2, “Benzimidazole derivatives and preparation process and pharmaceutical uses thereof” (WUHAN LL SCIENCE AND TECHNOLOGY DEVELOPMENT CO., LTD, priority 2015, dated 2017).
Like-named read-outs stand apart in the source and are kept apart here.

Experiments:
[1] = system: renovascular hypertensive rats; test: Effect on reducing blood pressure of renovascular hypertensive rats by single oral administration of potassium salt of QR01019; format: in vivo, Wistar rats; settings: RHR; for Maximum blood pressure reduction / Variations on heart rate: 1.0 mg/kg, single oral administration
Procedure: Wistar rats (provided by Hubei Province Disease Prevention Control Center, Wuhan, Hubei), male, weighted of 180 to 200 g, are randomly classified into 5 groups, including negative control group (0.5% CMC-Na), positive control group (1.0 mg/kg of potassium salt of Azilsartan medoxomil as the positive drug) and three groups with the test compound, QR01019 potassium salt (1.0 mg/kg), 6-8 animals per group. The unilateral renal artery of the rates were ligated to form two-kidney, one-clip renovascular hypertensive rat (RHR) models. After the surgery, the blood pressure was measured for weekly, and the measurement continued for 4 weeks. The rats whose blood pressures were steadily elevated by 4 kPa were successfully modeled rats. Before measuring blood pressure, the rat tails were heated by using a cyclic water bath tail sleeve at 39° C. to expand tail vessel, and thereafter, a tail sleeve method (BP2010A noninvasive blood pressure meter, Beijing Jiandeer Technology Limited Corporation, No. 1, Shangdi 10th Street, Haidian District, Beijing) was used to measure the blood pressures and heart rates of the rats before the administrations and at 1, 3, 5, 7, and 10 hours after oral administration, and each of the time points was measured three times to take the mean value. Maximum Blood pressure reduction (%)=maximum blood pressure reduction value after the administration/blood pressure value before the administration*100%.

[2] = system: renovascular hypertensive rats; test: Effect on reducing blood pressure of renovascular hypertensive rats by single oral administration; format: in vivo, Wistar rats; settings: for change in vivo at 0.5 mg/kg / inhibition in vivo at 0.5 mg/kg / change in vivo at 1 mg/kg / inhibition in vivo at 1 mg/kg / change in vivo at 2 mg/kg / inhibition in vivo at 2 mg/kg: Rattus norvegicus, single oral administration; for change in vivo at 0.5 mg/kg / change in vivo at 1 mg/kg / change in vivo at 2 mg/kg: RHR, read-out: Variations on heart rate; for inhibition in vivo at 0.5 mg/kg / inhibition in vivo at 1 mg/kg / inhibition in vivo at 2 mg/kg: two-kidney one-clip RHR, measured 1-10 h, read-out: Maximum blood pressure reduction; for blood pressure reduction at 24 hours after the administration / blood pressure reduction effect compared with Azilsartan medoxomil / lasting time of the blood pressure reduction effect compared with Azilsartan medoxomil: renal artery-ligated rat; for blood pressure reduction at 24 hours after the administration: dose not stated; for blood pressure reduction effect compared with Azilsartan medoxomil / lasting time of the blood pressure reduction effect compared with Azilsartan medoxomil: result in words
normal rats = test: Effect on blood pressure of normal rats by single oral administration; format: in vivo, Wistar rats; settings: Rattus norvegicus, po, single, normal rats; for inhibition in vivo at 0.5 mg/kg / inhibition in vivo at 1 mg/kg / inhibition in vivo at 2 mg/kg: 8 h, read-out: blood pressure reduction at 8 h after the administration; for inhibition in vivo at 0.5 mg/kg / change in vivo at 0.5 mg/kg: 0.5 mg/kg p.o.; for inhibition in vivo at 1 mg/kg / change in vivo at 1 mg/kg: 1.0 mg/kg p.o.; for inhibition in vivo at 2 mg/kg / change in vivo at 2 mg/kg: 2.0 mg/kg p.o.; for change in vivo at 0.5 mg/kg / change in vivo at 1 mg/kg / change in vivo at 2 mg/kg: read-out: variations on heart rate
[3] = system: spontaneously hypertensive rats (SHR); test: Effect on reducing blood pressure of spontaneously hypertensive rats (SHR) by multiple oral administrations; format: in vivo; settings: for inhibition in vivo at 0.5 mg/kg / inhibition in vivo at 1 mg/kg / inhibition in vivo at 2 mg/kg: Rattus norvegicus; for inhibition in vivo at 0.5 mg/kg / inhibition in vivo at 1 mg/kg / inhibition in vivo at 2 mg/kg / blood pressure reduction effect compared with Azilsartan medoxomil: SHR; for blood pressure reduction effect compared with Azilsartan medoxomil / reduction effects on the heart rate of SHR rats: result in words; for reduction effects on the heart rate of SHR rats: during the whole administration
[4] = 0.5 mg/kg oral once per day, 1 hour after the administration, read-out: Maximum blood pressure reduction, 1st-day administration
[5] = 0.5 mg/kg oral once per day, 1 hour after the administration, read-out: Maximum blood pressure reduction, 7th-day administration
[6] = 0.5 mg/kg oral once per day, 1 hour after the administration, read-out: Maximum blood pressure reduction, 14th-day administration
[7] = 0.5 mg/kg oral, read-out: Heart Rate (effect on reducing heart rate)
[8] = 1.0 mg/kg oral once per day, 1 hour after the administration, read-out: Maximum blood pressure reduction, 1st-day administration
[9] = 1.0 mg/kg oral once per day, 1 hour after the administration, read-out: Maximum blood pressure reduction, 7th-day administration
[10] = 1.0 mg/kg oral once per day, 1 hour after the administration, read-out: Maximum blood pressure reduction, 14th-day administration
[11] = 1.0 mg/kg oral, read-out: Heart Rate (effect on reducing heart rate)
[12] = 2.0 mg/kg oral once per day, 1 hour after the administration, read-out: Maximum blood pressure reduction, 1st-day administration
[13] = 2.0 mg/kg oral once per day, 1 hour after the administration, read-out: Maximum blood pressure reduction, 7th-day administration
[14] = 2.0 mg/kg oral once per day, 1 hour after the administration, read-out: Maximum blood pressure reduction, 14th-day administration
[15] = 2.0 mg/kg oral, read-out: Heart Rate (effect on reducing heart rate)

SMILES	change in vivo at 0.5 mg/kg [2]	inhibition in vivo at 0.5 mg/kg [2]	change in vivo at 1 mg/kg [2]	inhibition in vivo at 1 mg/kg [2]	change in vivo at 2 mg/kg [2]	inhibition in vivo at 2 mg/kg [2]	blood pressure reduction at 24 hours after the administration [2]	blood pressure reduction effect compared with Azilsartan medoxomil [2]	lasting time of the blood pressure reduction effect compared with Azilsartan medoxomil [2]	inhibition in vivo at 0.5 mg/kg (normal rats)	inhibition in vivo at 1 mg/kg (normal rats)	inhibition in vivo at 2 mg/kg (normal rats)	change in vivo at 0.5 mg/kg (normal rats)	change in vivo at 1 mg/kg (normal rats)	change in vivo at 2 mg/kg (normal rats)	inhibition in vivo at 0.5 mg/kg [3, 4]	inhibition in vivo at 0.5 mg/kg [3, 5]	inhibition in vivo at 0.5 mg/kg [3, 6]	inhibition in vivo at 0.5 mg/kg [3, 7]	inhibition in vivo at 1 mg/kg [3, 8]	further results
CCOc1nc2cccc(C(=O)OCc3oc(=O)oc3C)c2n1Cc1ccc(-c2ccccc2-c2noc(=O)[n-]2)cc1.[K+] [Positive control, potassium salt of Azilsartan medoxomil, reference compound]																					Maximum blood pressure reduction [1]: 34 ± 3.6%; Variations on heart rate [1]: −14 ± 7%
CCOc1nc2cccc(C(=O)OC(C)OC(=O)OCc3nc(C)c(C)nc3C)c2n1Cc1ccc(-c2ccccc2-c2noc(=O)[nH]2)cc1.[K] (stereo not drawn) [QR01019 potassium salt]																					Maximum blood pressure reduction [1]: 38 ± 4.3%; Variations on heart rate [1]: −18 ± 5%; regulation on the heart rate compared with positive control group ([1]; result in words): obviously superior to the positive control group; blood pressure reduction effect compared with control group ([1]; same dosage, result in words): significant blood pressure reduction effect
CCOc1nc2cccc(C(=O)OCc3no[n+]([O-])c3C)c2n1Cc1ccc(-c2ccccc2-c2noc(=O)[nH]2)cc1 [QR01023]	-8 ± 5%	18 ± 2.3%	-16 ± 7%	32 ± 8.1%	-23 ± 6%	42 ± 4.6%	18%	obviously superior to that of the Azilsartan medoxomil positive drug	close to that of Azilsartan medoxomil	5.3 ± 1.4%	3.6 ± 6.1%	4.3 ± 2.1%	-3 ± 2%	6%	-3 ± 5%	25 ± 8.2%	24 ± 7.1%	25 ± 6.8%	20 ± 3%	39 ± 6%	inhibition in vivo at 1 mg/kg [3, 9]: 38 ± 7%; inhibition in vivo at 1 mg/kg [3, 10]: 42 ± 5.3%; inhibition in vivo at 1 mg/kg [3, 11]: 14 ± 4%; inhibition in vivo at 2 mg/kg [3, 12]: 45 ± 7.3%; inhibition in vivo at 2 mg/kg [3, 13]: 48 ± 9.5%; inhibition in vivo at 2 mg/kg [3, 14]: 40 ± 8.2%; inhibition in vivo at 2 mg/kg [3, 15]: 23 ± 5%; blood pressure reduction effect compared with Azilsartan medoxomil [3]: obviously superior to that of the Azilsartan medoxomil positive drug; reduction effects on the heart rate of SHR rats [3]: significant reduction effects on the heart rate
CCOc1nc2cccc(C(=O)OCc3no[n+]([O-])c3CO[N+](=O)[O-])c2n1Cc1ccc(-c2ccccc2-c2noc(=O)[nH]2)cc1 [QR01034]	-12 ± 8%	23 ± 1.9%	-15 ± 7%	36 ± 4.8%	-21 ± 7%	45 ± 6%	25%	obviously superior to that of the Azilsartan medoxomil positive drug	close to that of Azilsartan medoxomil	3.4 ± 2.6%	5.1 ± 3.6%	3.4 ± 5%	-2 ± 5%	5%	-2 ± 5%	25 ± 8.1%	28 ± 7.4%	26 ± 5.1%	19 ± 2%	39 ± 7.5%	inhibition in vivo at 1 mg/kg [3, 9]: 39 ± 6.8%; inhibition in vivo at 1 mg/kg [3, 10]: 42 ± 5.9%; inhibition in vivo at 1 mg/kg [3, 11]: 15 ± 4%; inhibition in vivo at 2 mg/kg [3, 12]: 44 ± 8.6%; inhibition in vivo at 2 mg/kg [3, 13]: 45 ± 7%; inhibition in vivo at 2 mg/kg [3, 14]: 46 ± 7.3%; inhibition in vivo at 2 mg/kg [3, 15]: 21 ± 3%; blood pressure reduction effect compared with Azilsartan medoxomil [3]: obviously superior to that of the Azilsartan medoxomil positive drug; reduction effects on the heart rate of SHR rats [3]: significant reduction effects on the heart rate
CCOc1nc2cccc(C(=O)OCc3no[n+]([O-])c3C#N)c2n1Cc1ccc(-c2ccccc2-c2noc(=O)[nH]2)cc1 [QR01036]	-12 ± 9%	19 ± 3.5%	-18 ± 7%	38 ± 4.2%	-25 ± 7%	46 ± 5%	24%	obviously superior to that of the Azilsartan medoxomil positive drug	close to that of Azilsartan medoxomil	2.8 ± 2.1%	5.2 ± 3.5%	6.3 ± 2%	-1 ± 6%	-8 ± 2%	-5 ± 5%	20 ± 5.3%	24 ± 8.6%	24 ± 5.9%	14 ± 4%	35 ± 7.8%	inhibition in vivo at 1 mg/kg [3, 9]: 35 ± 4.6%; inhibition in vivo at 1 mg/kg [3, 10]: 40 ± 7.8%; inhibition in vivo at 1 mg/kg [3, 11]: 25 ± 2%; inhibition in vivo at 2 mg/kg [3, 12]: 46 ± 9.2%; inhibition in vivo at 2 mg/kg [3, 13]: 45 ± 8.3%; inhibition in vivo at 2 mg/kg [3, 14]: 48 ± 7.2%; inhibition in vivo at 2 mg/kg [3, 15]: 21 ± 3%; blood pressure reduction effect compared with Azilsartan medoxomil [3]: obviously superior to that of the Azilsartan medoxomil positive drug; reduction effects on the heart rate of SHR rats [3]: significant reduction effects on the heart rate
